According to PubChem BioAssay (NCI):
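Interpolation was linear, between the two tested concentrations surrounding the appropriate level; five concentrations were tested over 48 hours in 96-well plates. TGI: total growth inhibition.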

Key:
Assay in all cases: NCI anticancer screen, dose series, 48 h
[1] = test system: HL-60(TB) leukemia
[2] = test system: ACHN renal
[3] = test system: TK-10 renal
[4] = test system: PC-3 prostate
[5] = test system: HT29 colon
[6] = test system: HOP-62 NSCLC
[7] = test system: T-47D breast
[8] = test system: IGROV1 ovarian
[9] = test system: HCC-2998 colon
[10] = test system: A498 renal

SMILES | TGI [1] [µM] | TGI [2] [µM] | TGI [3] [µM] | TGI [4] [µM] | TGI [5] [µM] | TGI [6] [µM] | TGI [7] [µM] | TGI [8] [µM] | TGI [9] [µM] | TGI [10] [µM]
O=C(CCCN1CCC2(CC1)C(=O)NC(=O)N2c1ccccc1)c1ccc(F)cc1 | > 100 | > 100 | > 100 | > 100 | > 100 | > 100 | > 100 | > 100 | > 100 | > 100
CC(NC1=CC(=O)c2ncccc2C1=O)C(O)c1ccccc1 (stereo not given) | 16.5 | 43.7 | > 100 | 70.5 | 28.3 | 25.9 | 56 | 16.4 | 23.2 | 27.7
O=C(O)C(Cc1ccc2c(c1)CCC2)(Cc1ccc2c(c1)CCC2)C(=O)O | > 100 | > 100 | > 100 | > 100 | > 100 | > 100 | > 100 | > 100 | > 100 | > 100
Cc1cc(C)c(S(=O)(=O)N[C@@H](/C=C(\Br)CO)C(C)C)c(C)c1 | 40.3 | > 100 | > 100 | 48.9 | > 100 | > 100 | 68.4 | > 100 | 53.7 | 68
Cc1c2c(c(C)n1-c1ccccc1)C(=O)N(CCSC(=N)N)C2=O | > 100 | > 100 | > 100 | > 100 | > 100 | > 100 | 73.6 | > 100 | > 100 | > 100
N#Cc1cccc(C2ON=C(c3ccc([N+](=O)[O-])cc3)N2C23CC4CC(CC(C4)C2)C3)c1 (stereo not given) | > 100 | > 100 | > 100 | > 100 | > 100 | > 100 | > 100 | > 100 | > 100 | > 100
CC(=O)OCC1OC(Nc2ccc3nc(C)n(-c4cccc(C)c4)c(=O)c3c2)C(OC(C)=O)C(OC(C)=O)C1OC(C)=O (stereo not given) | > 62.5 | > 62.5 | > 62.5 | > 62.5 | > 62.5 | > 62.5 | > 62.5 | > 62.5 | > 62.5 | > 62.5
O=C1C(C(O)(C(F)(F)Cl)C(F)(F)Cl)CCC1C(O)(C(F)(F)Cl)C(F)(F)Cl (stereo not given) | > 10 | > 10 | > 10 | > 10 | > 10 | > 10 | > 10 | > 10 | > 10 | > 10
O=C(NCCN1C(=O)CN=C(c2ccc(Cl)cc2)c2cc(Cl)ccc21)OCc1ccccc1 | 38.1 | 32.1 | 37.3 | 28.3 | 31.8 | 38.2 | > 100 | 37.8 | 32.7 | 24.5
COc1cc2c(cc1OC)C1Cc3ccccc3CCN1CC2 (stereo not given) | > 100 | > 100 | > 100 | > 100 | > 100 | > 100 | > 100 | > 100 | > 100 | > 100
CNNC1=NS(=O)(=O)c2cc(C)c(Cl)cc2S1 | > 10 | > 10 | > 10 | > 10 | > 10 | > 10 | > 10 | > 10 | > 10 | > 10
CN(C)CCOc1ccc(I)cc1Cc1ccccc1 | 18.1 | 24.7 | 25.5 | 20.5 | 17 | 28.6 | 16.2 | 17.4 | 9.62 | 27.1
COC(=O)c1ccc2c(c1)CC1(C2)Cc2cc3c(c(C(=O)OC)c2C1)CCCC3 (stereo not given) | > 100 | > 100 | > 100 | > 100 | > 100 | > 100 | > 100 | > 100 | > 100 | > 100
CC(C)Nc1[nH]c(C(=O)c2ccccc2)c(N)c1C(=S)Nc1ccccc1 | > 100 | > 100 | > 100 | > 100 | 91.3 | > 100 | > 100 | > 100 | 46.2 | > 100
Cc1cccc(/C=N/NC(=S)NCc2ccccn2)n1 | > 100 | 67.5 | > 100 | > 100 | > 100 | > 78.6 | > 100 | > 100 | > 100 | > 100
CCC1(OC(=O)CN2CCN(CCO)CC2)C(=O)OCc2c1cc1n(c2=O)Cc2cc3ccccc3nc2-1 (stereo not given) | 3.24 | 1.52 | > 100 | > 100 | 8.85 | 4.55 | 4.92 | 17.4 | 6.29 | 1.78
O/N=c1/ccn(O)c2ccccc12 | 8.8 | 2.67 | 5.87 | 8.88 | 4.24 | 9.43 | 10.3 | 5.12 | 0.998 | 1.75
